# Assay results from patent publication US20050289663A1, “Method of constructing orchid haploid by treating unfertilized orchid flower with auxin and method of growing orchid” (SAPPORO BREWERIES LIMITED, priority 2002, published 2005).
# Legend:
# [1] = system: Bletilla. Brigantes “H5-11”; assay: Auxin treatment of unfertilized orchid flowers: parthenogenetic seed formation, germination and ploidy check (flow cytometry, chromosome count); format: in vivo
# Procedure: In the first embodiment, Bletilla. Brigantes “H5-11” was used. The supplied testing plants were grown in the conventional method. The blooming was affirmed, pollens were removed and a treatment of dropping of 10 micro liter was performed with the warmed lanolin paste which contains 2% of α-naphthaleneacetic acid at column using the syringe. Since two or more flowers might exist in the same inflorescence, the above-mentioned treatment was performed about for each one repeatedly five or more times. After individuals in which its ovary got fat are ripened completely (6 to 7 months after the treatment), then they were obtained, they were sterilized their surface for 5 minutes with 0.5% of sodium hydrochlorite solution, planted them on a medium in germfree container, and the germination was forced. After planting, when the number of planted seeds and the number of seed with embryo were observed, 11 seeds with embryo were observed out of 7000 of the planted total number of seeds. […] After plants originating in auxin treatment grew in the suitable size for sampling (1 to 2 months after germination), DNA contents of these plants originating in auxin treatment were measured by flow cytometry, then chromosomes were observed simultaneously and the number of chromosomes was investigated. The investigation was done by obtaining new leaf of seedling, plants treated with α-naphthaleneacetic acid (NAA) of the present invention were investigated and also plants originating in self-pollination were investigated as a comparison. FIG. 2 is views showing results of analysis based on flow cytometry. FIG. 3 is views showing observation results of chromosomes under a microscope.
# [2] = system: Zygopetalum; details: given to stigma of Zygopetalum; cited from earlier work
smiles,measurement,setting,value
O=C(O)Cc1cccc2ccccc12 [α-naphthaleneacetic acid],number of chromosomes of the plant originating in auxin treatment,"[1]; 1 to 2 months after germination, microscope, 32 chromosomes for Bletilla Bringantes",16
same,DNA amount by flow cytometry: peak position versus plant originating in self-pollination,"[1]; 1 to 2 months after germination, new leaf of seedling",half ploidy level
same,buds of plants originating in auxin treatment observed in the seeds with embryo,"[1]; 2 weeks after planting of seeds, from the 11 seeds with embryo",8
same,DNA contents by flow cytometry: peak position versus plants originating in self-pollination,[1]; 5 to 6 months after germination,almost same position
same,number of seeds with embryo,"[1]; out of 7000 of the planted total number of seeds, 10 micro liter lanolin paste containing 2% α-naphthaleneacetic acid dropped at column of unfertilized flower",11
same,induction of parthenogenesis,[2],parthenogenesis has been induced
